Assay results from ChEMBL document CHEMBL1122462, “Potential antiatherosclerotic agents. 4. [(Functionalized-alkyl)amino]benzoic acid analogues of cetaben” (1983).

Experiments:
[1] = molecular target: T1, Sterol O-acyltransferase 1 (Rattus norvegicus) (UniProt O70536); assay: In vitro inhibitory activity against acyl coenzyme A:cholesterol acyltransferase; design: concentration or dose not given beside the values; details: concentration not given here
T1 sequence (whole entry): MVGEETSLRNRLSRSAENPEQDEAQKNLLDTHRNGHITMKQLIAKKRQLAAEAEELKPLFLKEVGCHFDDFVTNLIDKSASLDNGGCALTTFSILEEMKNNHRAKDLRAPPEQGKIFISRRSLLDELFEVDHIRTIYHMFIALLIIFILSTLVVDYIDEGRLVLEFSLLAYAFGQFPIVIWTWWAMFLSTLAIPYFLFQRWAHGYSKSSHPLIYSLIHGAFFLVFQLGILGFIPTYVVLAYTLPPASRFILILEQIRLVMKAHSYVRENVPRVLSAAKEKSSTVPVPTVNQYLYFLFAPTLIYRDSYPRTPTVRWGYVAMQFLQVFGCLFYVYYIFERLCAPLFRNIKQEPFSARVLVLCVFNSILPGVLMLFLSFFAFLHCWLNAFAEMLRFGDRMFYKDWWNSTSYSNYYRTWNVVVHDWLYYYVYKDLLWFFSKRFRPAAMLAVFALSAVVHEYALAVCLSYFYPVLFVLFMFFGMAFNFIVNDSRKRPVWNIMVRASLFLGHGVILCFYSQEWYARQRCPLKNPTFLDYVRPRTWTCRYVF

[2] = test system: Rattus norvegicus; assay: In vivo Triglyceride lowering activity at dose as 0.03 % of the diet; format: functional
[3] = test system: Rattus norvegicus; assay: In vivo sterol lowering activity, dosed as 0.03 % of the diet; format: functional
[4] = test system: Rattus norvegicus; assay: In vivo sterol lowering activity at dose of 0.10 % of the diet; format: functional
[5] = test system: Rattus norvegicus; assay: In vivo Triglyceride lowering activity at dose as 0.01 % of the diet; format: functional
[6] = test system: Rattus norvegicus; assay: In vivo Triglyceride lowering activity at a dose of 0.10 % of the diet; format: functional
[7] = test system: Rattus norvegicus; assay: In vivo Sterol lowering activity at dose as 0.01% of the diet; format: functional

inhibition [1] [%]	Compound	triglyceride lowering activity [2] [%]	serum sterol level, percent of control [3] [%]	serum sterol level, % of control [4] [%]	serum triglyceride level (% of control) [5] [%]	serum triglyceride level (% of control) [6] [%]	serum sterol level, percent of control [7] [%]
0	CCOC(=O)c1ccc(NCCCCCCCCCCCCCCCC(=O)OC)cc1	173	110	104	140	129	105
< 64	CCCCCCCCCCC(C#N)CCCCCNc1ccc(C(=O)O)cc1 (centres undefined)	<66	<85	83	75	<50	96
< 42	O=C(O)c1ccc(NCC(F)(F)C(F)(F)C(F)(F)C(F)(F)C(F)(F)C(F)(F)C(F)(F)F)cc1	<40	<66	<59	<51	<31	<87
0	CCOC(=O)c1ccc(NCCCCCCCCCCCCCCCCSC(C)=O)cc1	75	96	93	91	<57	98
< 24	CCOC(=O)c1ccc(NCCCCCCCCCCC(F)(F)F)cc1	<61	88	<87	<74	<46	<86
< 40	CCCCSCCCCCCCCCCCNc1ccc(C(=O)O)cc1	<71	91	<78	79	<62	91
8	CCOC(=O)c1ccc(NCCCCCCCCCCCCCCCC(F)(F)F)cc1	<47	<72	<75	<75	<41	<83
17	CCOC(=O)c1ccc(NCCCCCCCCCCC[Si](C)(C)C)cc1	111	87	<57	113	<78	85
< 19	CCCCCCCCCCC(=O)CCCCCNc1ccc(C(=O)OCC)cc1	86	104	107	103	81	109
10	CCOC(=O)c1ccc(NCCCCCCCCCCCCCCCCBr)cc1	84	98	93	100	100	99
7	CCCCCCCCCCC(N)CCCCCNc1ccc(C(=O)[O-])cc1.[Na+] (centres undefined)	107	117	98	68	120	100
9	CCOC(=O)c1ccc(NCCCCCCCCCCCCCC(C)C)cc1	84	<89	<80	84	<61	92
< 43	COCCCCCCCCCCCCCCCCNc1ccc(C(=O)O)cc1	<73	96	<86	76	<52	97
< 73	Br.CCOC(=O)c1ccc(NCCCCCCCCCCCSC(=N)N)cc1	<69	107	98	85	<59	100
8	O=C(O)c1ccc(NCCCCCCCCCCCBr)cc1	<65	<86	100	78	<55	99
15	CCCCCCCCCCCCCCCCN(CC(=O)O)c1ccc(C(=O)O)cc1	100	109	93	105	99	105
< 26	O=C(O)c1ccc(NCCCCCCCCCCCS)cc1	<61	89	<84	<65	<50	92
< 36	CCSCCCCCCCCCCCCCCCCNc1ccc(C(=O)O)cc1	<58	91	88	62	<59	91
< 51	CCCCCCCCCCCCCCC(C)Nc1ccc(C(=O)O)cc1 (centres undefined)	68	95	<79	79	<49	114
< 51	CC(C)CCCCCCCCCCCCCCNc1ccc(C(=O)O)cc1	<50	<67	<44	76	<29	<79
5	CCOC(=O)c1ccc(NCCCCCCCCCCCCCCC(C)(C)C)cc1	<71	<78	<68	79	<44	<69
< 50	CCOC(=O)c1ccc(NCCCCCCCCCCCCCC[Si](C)(C)C)cc1	<66	<66	<53	<77	<62	84
11	CCCCCCCCCCCCCCCCN(CC(=O)OCC)c1ccc(C(=O)OC)cc1	97	100	104	113	104	106
< 63	CC(C)CCCCCCCCCCCCCNc1ccc(C(=O)O)cc1	<68	<76	<64	77	<29	<89
< 57	CCCCCCCCCCCCCCCCNc1ccc(C(=O)O)cc1 [CETABEN]	<45	<71	<54	<71	<31	<72
< 33	O=C(CCCCCCCCCCOc1ccc(C(=O)O)cc1)Nc1ccc(C(=O)O)cc1	106	93	100	116	93	100
< 15	CCCC[S+]([O-])CCCCCCCCCCCNc1ccc(C(=O)O)cc1 (centres undefined)	94	95	91	87	<66	106
